These results are taken from US20250171437A1 (Agios Pharmaceuticals,Inc., priority 2022, published 2025).

The structures appear in SMILES notation. Bounds are passed on as bounds.

In the assay the target is T1, human PAH with the R408W mutation (A375 R408W cells) (Homo sapiens, UniProt P00439, R408W).
T1 construct: expressed in transfected cells
T1 sequence (P00439 1-452 R408W): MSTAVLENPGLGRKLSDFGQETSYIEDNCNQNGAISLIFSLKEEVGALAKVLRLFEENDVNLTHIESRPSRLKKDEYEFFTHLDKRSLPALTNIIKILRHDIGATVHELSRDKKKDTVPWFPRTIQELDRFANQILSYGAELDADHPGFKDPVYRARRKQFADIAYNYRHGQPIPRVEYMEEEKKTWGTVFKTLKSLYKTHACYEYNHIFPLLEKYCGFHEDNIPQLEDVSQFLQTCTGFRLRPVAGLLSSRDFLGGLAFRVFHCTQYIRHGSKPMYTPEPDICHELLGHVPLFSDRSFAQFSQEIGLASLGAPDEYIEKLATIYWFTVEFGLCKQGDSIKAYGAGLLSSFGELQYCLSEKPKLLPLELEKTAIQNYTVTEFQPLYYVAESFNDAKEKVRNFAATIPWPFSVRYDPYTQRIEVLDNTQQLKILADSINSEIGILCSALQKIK
Put plainly: Cell Based Phenylalanine Flux Assay. As to conditions: A375 R408W cells; 24 hrs with compound, then 20 μM sepiapterin and 800 μM 13C9,15N-Phenylalanine for 4 hours; 13C-Tyrosine by LC-MS; average where tested multiple times. An outline of the steps:
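Stable R408W PAH A375 cells: 24 h compound pretreatment in duplicate, then 4 h with 800 μM isotope-labelled Phe and 20 μM sepiapterin. Labelled Tyr output by LC-MS; AC50 averaged where repeated.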
With `CC(F)(F)c1ncoc1C(=O)N1CCc2[nH]cnc2[C@@H]1c1nc2cc(F)ccc2o1` [Example 154, (R)-(4-(1,1-difluoroethyl)oxazol-5-yl)(4-(5-fluorobenzo[d]oxazol-2-yl)-6,7-dihydro-1H-imidazo[4,5-c]pyridin-5(4H)-yl)methanone], the AC50 (as a rule, the concentration at which the activity in the assay is half-maximal) was 1000 to 5000 nM.

In the case of `[2H]C([2H])([2H])OCc1nc(C(F)F)c(C(=O)N2CCc3[nH]cnc3[C@H]2c2nc3cc(F)ccc3o2)o1` [Example 155, (S)-(4-(difluoromethyl)-2-((methoxy-d3)methyl)oxazol-5-yl)(4-(5-fluorobenzo[d]oxazol-2-yl)-1,4,6,7-tetrahydro-5H-imidazo[4,5-c]pyridin-5-yl)methanone], the AC50 is not above 500 nM.

As for `[2H]C([2H])([2H])OCc1nc(C(F)F)c(C(=O)N2CCc3[nH]cnc3[C@@H]2c2nc3cc(F)ccc3o2)o1` [Example 156, (R)-(4-(difluoromethyl)-2-((methoxy-d3)methyl)oxazol-5-yl)(4-(5-fluorobenzo[d]oxazol-2-yl)-1,4,6,7-tetrahydro-5H-imidazo[4,5-c]pyridin-5-yl)methanone], the AC50 lay within 1000 to 5000 nM.

`C[C@H](O)c1nc(C(F)F)c(C(=O)N2CCc3[nH]cnc3[C@H]2c2nc3cc(F)ccc3o2)o1` [Example 157, (4-(difluoromethyl)-2-((S)-1-hydroxyethyl)oxazol-5-yl)((S)-4-(5-fluorobenzo[d]oxazol-2-yl)-6,7-dihydro-1H-imidazo[4,5-c]pyridin-5(4H)-yl)methanone]: the AC50 fell in the range of 500 to 1000 nM.

Regarding `C[C@H](O)c1nc(C(F)F)c(C(=O)N2CCc3[nH]cnc3[C@@H]2c2nc3cc(F)ccc3o2)o1` [Example 158, (4-(difluoromethyl)-2-((S)-1-hydroxyethyl)oxazol-5-yl)((R)-4-(5-fluorobenzo[d]oxazol-2-yl)-6,7-dihydro-1H-imidazo[4,5-c]pyridin-5(4H)-yl)methanone], the AC50 is 1000 to 5000 nM.

Consider `CC(C)(C#N)c1nc(C(F)F)c(C(=O)N2CCc3[nH]cnc3[C@H]2c2nc3cc(F)ccc3o2)o1` [Example 159, (S)-2-(4-(difluoromethyl)-5-(4-(5-fluorobenzo[d]oxazol-2-yl)-4,5,6,7-tetrahydro-1H-imidazo[4,5-c]pyridine-5-carbonyl)oxazol-2-yl)-2-methylpropanenitrile], for which the AC50 was not above 500 nM.

On to `CC(C)(C#N)c1nc(C(F)F)c(C(=O)N2CCc3[nH]cnc3[C@@H]2c2nc3cc(F)ccc3o2)o1` [Example 160, (R)-2-(4-(difluoromethyl)-5-(4-(5-fluorobenzo[d]oxazol-2-yl)-4,5,6,7-tetrahydro-1H-imidazo[4,5-c]pyridine-5-carbonyl)oxazol-2-yl)-2-methylpropanenitrile], for which the AC50 lay in the range of 500 to 1000 nM.

On to `O=C(c1ocnc1C(F)(F)F)N1CCc2[nH]cnc2[C@H]1c1nc2ccc(F)cc2o1` [Example 161, (S)-(4-(6-fluorobenzo[d]oxazol-2-yl)-6,7-dihydro-1H-imidazo[4,5-c]pyridin-5(4H)-yl)(4-(trifluoromethyl)oxazol-5-yl)methanone], for which the AC50 is not above 500 nM.

Take `O=C(c1ocnc1C(F)(F)F)N1CCc2[nH]cnc2[C@@H]1c1nc2ccc(F)cc2o1` [Example 162, (R)-(4-(6-fluorobenzo[d]oxazol-2-yl)-6,7-dihydro-1H-imidazo[4,5-c]pyridin-5(4H)-yl)(4-(trifluoromethyl)oxazol-5-yl)methanone]: the AC50 fell in the range of 1000 to 5000 nM.

Take `O=C(c1ocnc1C(F)F)N1CCc2[nH]cnc2[C@H]1c1nc2ccc(F)cc2o1` [Example 163, (S)-(4-(difluoromethyl)oxazol-5-yl)(4-(6-fluorobenzo[d]oxazol-2-yl)-6,7-dihydro-1H-imidazo[4,5-c]pyridin-5(4H)-yl)methanone]: the AC50 was not above 500 nM.

Regarding `O=C(c1ocnc1C(F)F)N1CCc2[nH]cnc2[C@@H]1c1nc2ccc(F)cc2o1` [Example 164, (R)-(4-(difluoromethyl)oxazol-5-yl)(4-(6-fluorobenzo[d]oxazol-2-yl)-6,7-dihydro-1H-imidazo[4,5-c]pyridin-5(4H)-yl)methanone], the AC50 is 1000 to 5000 nM.

In the case of `O=C(c1cnn2cc(Br)c(Cl)cc12)N1CCc2[nH]cnc2[C@H]1c1nc2cc(F)ccc2o1` [Example 165, (S)-(6-bromo-5-chloropyrazolo[1,5-a]pyridin-3-yl)(4-(5-fluorobenzo[d]oxazol-2-yl)-6,7-dihydro-1H-imidazo[4,5-c]pyridin-5(4H)-yl)methanone], the AC50 was not above 500 nM.

In the case of `O=C(c1cnn2cc(Br)c(Cl)cc12)N1CCc2[nH]cnc2[C@@H]1c1nc2cc(F)ccc2o1` [Example 166, (R)-(6-bromo-5-chloropyrazolo[1,5-a]pyridin-3-yl)(4-(5-fluorobenzo[d]oxazol-2-yl)-6,7-dihydro-1H-imidazo[4,5-c]pyridin-5(4H)-yl)methanone], the AC50 is not below 5000 nM.

Take `O=C(c1ocnc1C(F)(F)F)N1CCc2[nH]cnc2[C@H]1c1nc2c(F)cccc2o1` [Example 167, (S)-(4-(4-fluorobenzo[d]oxazol-2-yl)-6,7-dihydro-1H-imidazo[4,5-c]pyridin-5(4H)-yl)(4-(trifluoromethyl)oxazol-5-yl)methanone]: the AC50 was not above 500 nM.

Regarding `O=C(c1ocnc1C(F)(F)F)N1CCc2[nH]cnc2[C@@H]1c1nc2c(F)cccc2o1` [Example 168, (R)-(4-(4-fluorobenzo[d]oxazol-2-yl)-6,7-dihydro-1H-imidazo[4,5-c]pyridin-5(4H)-yl)(4-(trifluoromethyl)oxazol-5-yl)methanone], the half-maximal activity concentration (AC50) lay in the range of 1000 to 5000 nM.

As for `O=C(c1ocnc1C(F)F)N1CCc2[nH]cnc2[C@H]1c1nc2c(F)cccc2o1` [Example 169, (S)-(4-(difluoromethyl)oxazol-5-yl)(4-(4-fluorobenzo[d]oxazol-2-yl)-6,7-dihydro-1H-imidazo[4,5-c]pyridin-5(4H)-yl)methanone], the AC50 is not above 500 nM.

As for `O=C(c1ocnc1C(F)F)N1CCc2[nH]cnc2[C@@H]1c1nc2c(F)cccc2o1` [Example 170, (R)-(4-(difluoromethyl)oxazol-5-yl)(4-(4-fluorobenzo[d]oxazol-2-yl)-6,7-dihydro-1H-imidazo[4,5-c]pyridin-5(4H)-yl)methanone], the AC50 lay within 500 to 1000 nM.

In the case of `O=C(c1ocnc1C(F)(F)F)N1CCc2[nH]cnc2[C@H]1c1nc2cccc(F)c2o1` [Example 171, (S)-(4-(7-fluorobenzo[d]oxazol-2-yl)-6,7-dihydro-1H-imidazo[4,5-c]pyridin-5(4H)-yl)(4-(trifluoromethyl)oxazol-5-yl)methanone], the AC50 is not above 500 nM.

Regarding `O=C(c1ocnc1C(F)(F)F)N1CCc2[nH]cnc2[C@@H]1c1nc2cccc(F)c2o1` [Example 172, (R)-(4-(7-fluorobenzo[d]oxazol-2-yl)-6,7-dihydro-1H-imidazo[4,5-c]pyridin-5(4H)-yl)(4-(trifluoromethyl)oxazol-5-yl)methanone], the AC50 is not above 500 nM.

Turning to `O=C(c1ocnc1C(F)F)N1CCc2[nH]cnc2[C@H]1c1nc2cccc(F)c2o1` [Example 173, (S)-(4-(difluoromethyl)oxazol-5-yl)(4-(7-fluorobenzo[d]oxazol-2-yl)-6,7-dihydro-1H-imidazo[4,5-c]pyridin-5(4H)-yl)methanone], the AC50 is not above 500 nM.

Turning to `O=C(c1ocnc1C(F)F)N1CCc2[nH]cnc2[C@@H]1c1nc2cccc(F)c2o1` [Example 174, (R)-(4-(difluoromethyl)oxazol-5-yl)(4-(7-fluorobenzo[d]oxazol-2-yl)-6,7-dihydro-1H-imidazo[4,5-c]pyridin-5(4H)-yl)methanone], the AC50 was not above 500 nM.

For `O=C(c1cnn2cc(N3CCOCC3)c(Cl)cc12)N1CCc2[nH]cnc2[C@H]1c1nc2cc(F)ccc2o1` [Example 175, (S)-(5-chloro-6-morpholinopyrazolo[1,5-a]pyridin-3-yl)(4-(5-fluorobenzo[d]oxazol-2-yl)-6,7-dihydro-1H-imidazo[4,5-c]pyridin-5(4H)-yl)methanone], the AC50 was in the range of 500 to 1000 nM.

Take `O=C(c1cnn2cc(N3CCOCC3)c(Cl)cc12)N1CCc2[nH]cnc2[C@@H]1c1nc2cc(F)ccc2o1` [Example 176, (R)-(5-chloro-6-morpholinopyrazolo[1,5-a]pyridin-3-yl)(4-(5-fluorobenzo[d]oxazol-2-yl)-6,7-dihydro-1H-imidazo[4,5-c]pyridin-5(4H)-yl)methanone]: the AC50 fell in the range of 1000 to 5000 nM.

As for `Nc1cn2ncc(C(=O)N3CCc4[nH]cnc4[C@H]3c3nc4cc(F)ccc4o3)c2cc1Cl` [Example 177, (S)-(6-amino-5-chloropyrazolo[1,5-a]pyridin-3-yl)(4-(5-fluorobenzo[d]oxazol-2-yl)-6,7-dihydro-1H-imidazo[4,5-c]pyridin-5(4H)-yl)methanone], the AC50 was not above 500 nM.

Regarding `Nc1cn2ncc(C(=O)N3CCc4[nH]cnc4[C@@H]3c3nc4cc(F)ccc4o3)c2cc1Cl` [Example 178, (R)-(6-amino-5-chloropyrazolo[1,5-a]pyridin-3-yl)(4-(5-fluorobenzo[d]oxazol-2-yl)-6,7-dihydro-1H-imidazo[4,5-c]pyridin-5(4H)-yl)methanone], the AC50 was not below 5000 nM.

Turning to `O=C(c1ocnc1CF)N1CCc2[nH]cnc2[C@H]1c1nc2cc(F)ccc2o1` [Example 179, (S)-(4-(5-fluorobenzo[d]oxazol-2-yl)-6,7-dihydro-1H-imidazo[4,5-c]pyridin-5(4H)-yl)(4-(fluoromethyl)oxazol-5-yl)methanone], the AC50 was in the range of 500 to 1000 nM.
